Earlier results on four compounds are cited in US9782432B2, “Polymers and methods thereof for wound healing” (RUTGERS, THE STATE UNIVERSITY OF NEW JERSEY, priority 2012, dated 2017).

Where two headings read alike, the source gives them in different places.

Data set [1] has as its system adhesions. The settings on record: 5 mg/kg/day intramuscularly, 7 days.
In data set [2] the test system is adhesions. Conditions: 0.35, 0.7 or 1.4 mg every 6 hours for 48 or 96 hours.
Data set [3] relates to adhesions.
In data set [4] the test system is adhesion formation. Conditions: rats, IP injection.
Data set [5] concerns adhesion formation. The settings on record: dog, IP injection.
Data set [6] has as its system adhesion formation. The settings on record: rats with intact pineal glands, injections of melatonin.
Data set [7] concerns adhesion formation.
The test system of data set [8] is adhesions. Conditions: IP injections, rat model.

On to `O=C(O)COC(=O)Cc1ccccc1Nc1c(Cl)cccc1Cl` [aceclofenac], for which, in the data set on adhesions [1], the “decrease in fibroblasts at the injury site” value is reported as 8% and the “fibrous area, treatment vs control group” value was “significant difference”.
Turning to `CC(=O)Oc1ccccc1C(=O)O` [aspirin, acetylsalicylic acid], the “adhesions vs untreated control” value with adhesions [2] is recorded as “no group was significantly different from the untreated control”. In addition, the adhesion rate is 44% with adhesions [3] (1.7 mg/kg/day for 5 days after surgery) and 77% with adhesions [3] (28.0 mg/kg/day for 5 days after surgery).
For the compound `COc1ccc2[nH]cc(CCNC(C)=O)c2c1` [melatonin], the adhesion formation result in the data set with adhesion formation [4] is given as “significantly reduce abdominal adhesion formation”; in the data set with adhesion formation [5] it was “significantly reduce adhesion formation”. Further, in the data set with adhesion formation [6], the adhesions vs control entry was “significantly less adhesions than the control”.
As to vitamin E, the “reduction of adhesion formation” value with adhesion formation [7] (IP injection) is 80%; in the data set on adhesion formation [7] (oral or intramuscular administration), “not when administered orally or intramuscularly”. Besides, the abdominal adhesion formation entry in the data set with adhesion formation [7] (rats, injected intraperitoneally) is “significantly reduce abdominal adhesion formation”. Also, the “efficacy compared with Seprafilm” value in the data set with adhesions [8] is “as effective as Seprafilm”.
